# Measured values taken from patent US20110268789A1, “USE OF PITUITARY ADENYLATE CYCLASE-ACTIVATING POLYPEPTIDE (PACAP) AND PACAP ANALOGS AS ADJUNCTIVE TREATMENTS WITH ANTICANCER AGENTS” (priority 2008, published 2011).
# Legend:
# [1] = test system: light-chain immunoglobulin-secreting human myeloma cells; experiment: Carmustine-induced apoptotic cell death of myeloma cells; assay type: cell-based
# Experimental: (§1) The light-chain immunoglobulin-secreting human myeloma cells were cultured in RPMI 1640 medium supplemented with 10% non-inactivated fetal bovine serum and 0.05 mM 2-mercaptoethanol. The effects of PACAP38, and [Ala^22]PACAP38 on apoptotic cell death was assessed by the quantitative determination of cytoplasmic histone-associated DNA-fragmentation (mono- and oligonucleosomes) after exposure to carmustine for 48 hours. Each value represents the mean plus/minus the standard deviation of three determinations. **p<0.01 and *p<0.05 compared to the carmustine-treated (control) cells.
# [2] = test system: light-chain immunoglobulin-secreting human myeloma cells; experiment: Thalidomide-induced apoptotic cell death of myeloma cells; assay type: cell-based
# Experimental: as §1, with “PACAP38” for “PACAP38, and [Ala^22]PACAP38”, “thalidomide” for “carmustine”, “four” for “three”, “thalidomide-treated” for “carmustine-treated”
# [3] = test system: Four-vessel occlusion in the rat; conditions: cited from earlier work
substance,measurement,setting,value
PACAP38,relative potency as enhancer of carmustine-induced apoptotic cell death,[1],more potent than [Ala^22]PACAP38
same,effect on carmustine-induced apoptotic cell death,"[1]; carmustine 48 hours, FIG. 17",enhancement
same,effect on carmustine-induced apoptotic cell death,[1]; highest dose tested (10^−6 M),significantly enhanced
same,lowest dose with significant enhancement of thalidomide-induced apoptotic cell death,[2],10^−8 M
same,effect on thalidomide-induced apoptotic cell death,"[2]; thalidomide 48 hours, FIG. 19",dose-dependent enhancement
same,reduction in the number of CA1 pyramidal cells at day 7 post-occlusion,[3]; 16 pmol/hr or 160 pmol/hr i.v. for 6 days beginning 24 hours after occlusion,significantly reversed
same,side-effects during 6 days continuous infusion,[3]; 16 pmol/hr or 160 pmol/hr i.v.,no obvious side-effects
